Reference: article PMC9067983, “Identification of highly selective type II kinase inhibitors with chiral peptidomimetic tails” (Journal of Enzyme Inhibition and Medicinal Chemistry, 2022)
Where a SMILES comes first, the peptide text is derived from it. [ ]: non-standard residue; d: D form. The star is where a group is joined. X1 = Cc1ccc(Nc2ncc3c(n2)N(C)C(=O)N(c2cc(C(=O)*)ccc2C)C3)cn1; Aib = CC(C)(N)C(=O)O

Experiments:
Experiment in all cases: kinase selectivity profiling
Type in all cases: biochemical
Details in all cases: 10µM ATP, read-out: % inhibition (relative to DMSO)
DCAMKL2 = target: T1, DCAMKL2 (Homo sapiens, UniProt Q8N568)
T1 construct: purchased Reaction Biology Corp
Protocol: (§1) Full panel kinase profiling and kinase IC50 measurement were performed by using Reaction Biology Corp. (San Diego, USA).

CDK4/cyclin D3 = target: T2, CDK4/cyclin D3 (Homo sapiens, UniProt P11802)
T2 construct: purchased Reaction Biology Corp
Protocol: as §1

RIPK3 = target: T3, RIPK3 (Homo sapiens, UniProt Q9Y572)
T3 construct: purchased Reaction Biology Corp
Protocol: as §1

TESK1 = target: T4, TESK1 (Homo sapiens, UniProt Q15569)
T4 construct: purchased Reaction Biology Corp
Protocol: as §1

CDK1/cyclin B = target: T5, CDK1/cyclin B (Homo sapiens, UniProt P06493)
T5 construct: purchased Reaction Biology Corp
Protocol: as §1

GRK3 = target: T6, GRK3 (Homo sapiens, UniProt P35626)
T6 construct: purchased Reaction Biology Corp
Protocol: as §1

PDGFRa = target: T7, PDGFRa (Homo sapiens, UniProt P16234)
T7 construct: purchased Reaction Biology Corp
Protocol: as §1

EPHA2 = target: T8, EPHA2 (Homo sapiens, UniProt P29317)
T8 construct: purchased Reaction Biology Corp
Protocol: as §1

ALK4/ACVR1B = target: T9, ALK4/ACVR1B (Homo sapiens, UniProt P36896)
T9 construct: purchased Reaction Biology Corp
Protocol: as §1

PKCG = target: T10, PKCG (Homo sapiens, UniProt P05129)
T10 construct: purchased Reaction Biology Corp
Protocol: as §1

TIE2/TEK = target: T11, TIE2/TEK (Homo sapiens, UniProt Q02763)
T11 construct: purchased Reaction Biology Corp
Protocol: as §1

PKN1/PRK1 = target: T12, PKN1/PRK1 (Homo sapiens, UniProt Q16512)
T12 construct: purchased Reaction Biology Corp
Protocol: as §1

ROCK2 = target: T13, ROCK2 (Homo sapiens, UniProt O75116)
T13 construct: purchased Reaction Biology Corp
Protocol: as §1

PKCepsilon = target: T14, PKCepsilon (Homo sapiens, UniProt Q02156)
T14 construct: purchased Reaction Biology Corp
Protocol: as §1

GCK/MAP4K2 = target: T15, GCK/MAP4K2 (Homo sapiens, UniProt Q12851)
T15 construct: purchased Reaction Biology Corp
Protocol: as §1

CAMK1a = target: T16, CAMK1a (Homo sapiens, UniProt Q14012)
T16 construct: purchased Reaction Biology Corp
Protocol: as §1

CAMK4 = target: T17, CAMK4 (Homo sapiens, UniProt Q16566)
T17 construct: purchased Reaction Biology Corp
Protocol: as §1

NLK = target: T18, NLK (Homo sapiens, UniProt Q9UBE8)
T18 construct: purchased Reaction Biology Corp
Protocol: as §1

PAK6 = target: T19, PAK6 (Homo sapiens, UniProt Q9NQU5)
T19 construct: purchased Reaction Biology Corp
Protocol: as §1

PKMYT1 = target: T20, PKMYT1 (Homo sapiens, UniProt Q99640)
T20 construct: purchased Reaction Biology Corp
Protocol: as §1

TLK2 = target: T21, TLK2 (Homo sapiens, UniProt Q86UE8)
T21 construct: purchased Reaction Biology Corp
Protocol: as §1

CDK3/cyclin E2 = target: T22, CDK3/cyclin E2 (Homo sapiens, UniProt Q00526)
T22 construct: purchased Reaction Biology Corp
Protocol: as §1

TGFBR2 = target: T23, TGFBR2 (Homo sapiens, UniProt P37173)
T23 construct: purchased Reaction Biology Corp
Protocol: as §1

PAK3 = target: T24, PAK3 (Homo sapiens, UniProt O75914)
T24 construct: purchased Reaction Biology Corp
Protocol: as §1

TRKB = target: T25, TRKB (Homo sapiens, UniProt Q16620)
T25 construct: purchased Reaction Biology Corp
Protocol: as §1

ERN1/IRE1 = target: T26, ERN1/IRE1 (Homo sapiens, UniProt O75460)
T26 construct: purchased Reaction Biology Corp
Protocol: as §1

CK2a2 = target: T27, CK2a2 (Homo sapiens, UniProt P19784)
T27 construct: purchased Reaction Biology Corp
Protocol: as §1

MARK2/PAR-1Ba = target: T28, MARK2/PAR-1Ba (Homo sapiens, UniProt Q7KZI7)
T28 construct: purchased Reaction Biology Corp
Protocol: as §1

FLT3 = target: T29, FLT3 (Homo sapiens, UniProt P36888)
T29 construct: purchased Reaction Biology Corp
Protocol: as §1

CLK1 = target: T30, CLK1 (Homo sapiens, UniProt P49759)
T30 construct: purchased Reaction Biology Corp
Protocol: as §1

LIMK1 = target: T31, LIMK1 (Homo sapiens, UniProt P53667)
T31 construct: purchased Reaction Biology Corp
Protocol: as §1

TTBK2 = target: T32, TTBK2 (Homo sapiens, UniProt Q6IQ55)
T32 construct: purchased Reaction Biology Corp
Protocol: as §1

YES/YES1 = target: T33, YES/YES1 (Homo sapiens, UniProt P07947)
T33 construct: purchased Reaction Biology Corp
Protocol: as §1

ALK3/BMPR1A = target: T34, ALK3/BMPR1A (Homo sapiens, UniProt P36894)
T34 construct: purchased Reaction Biology Corp
Protocol: as §1

GRK5 = target: T35, GRK5 (Homo sapiens, UniProt P34947)
T35 construct: purchased Reaction Biology Corp
Protocol: as §1

WNK3 = target: T36, WNK3 (Homo sapiens, UniProt Q9BYP7)
T36 construct: purchased Reaction Biology Corp
Protocol: as §1

RIPK4 = target: T37, RIPK4 (Homo sapiens, UniProt P57078)
T37 construct: purchased Reaction Biology Corp
Protocol: as §1

PAK2 = target: T38, PAK2 (Homo sapiens, UniProt Q13177)
T38 construct: purchased Reaction Biology Corp
Protocol: as §1

CAMKK1 = target: T39, CAMKK1 (Homo sapiens, UniProt Q8N5S9)
T39 construct: purchased Reaction Biology Corp
Protocol: as §1

GRK4 = target: T40, GRK4 (Homo sapiens, UniProt P32298)
T40 construct: purchased Reaction Biology Corp
Protocol: as §1

ERK2/MAPK1 = target: T41, ERK2/MAPK1 (Homo sapiens, UniProt P28482)
T41 construct: purchased Reaction Biology Corp
Protocol: as §1

FYN = target: T42, FYN (Homo sapiens, UniProt P06241)
T42 construct: purchased Reaction Biology Corp
Protocol: as §1

JNK3 = target: T43, JNK3 (Homo sapiens, UniProt P53779)
T43 construct: purchased Reaction Biology Corp
Protocol: as §1

T12 sequence (Q16512 whole entry): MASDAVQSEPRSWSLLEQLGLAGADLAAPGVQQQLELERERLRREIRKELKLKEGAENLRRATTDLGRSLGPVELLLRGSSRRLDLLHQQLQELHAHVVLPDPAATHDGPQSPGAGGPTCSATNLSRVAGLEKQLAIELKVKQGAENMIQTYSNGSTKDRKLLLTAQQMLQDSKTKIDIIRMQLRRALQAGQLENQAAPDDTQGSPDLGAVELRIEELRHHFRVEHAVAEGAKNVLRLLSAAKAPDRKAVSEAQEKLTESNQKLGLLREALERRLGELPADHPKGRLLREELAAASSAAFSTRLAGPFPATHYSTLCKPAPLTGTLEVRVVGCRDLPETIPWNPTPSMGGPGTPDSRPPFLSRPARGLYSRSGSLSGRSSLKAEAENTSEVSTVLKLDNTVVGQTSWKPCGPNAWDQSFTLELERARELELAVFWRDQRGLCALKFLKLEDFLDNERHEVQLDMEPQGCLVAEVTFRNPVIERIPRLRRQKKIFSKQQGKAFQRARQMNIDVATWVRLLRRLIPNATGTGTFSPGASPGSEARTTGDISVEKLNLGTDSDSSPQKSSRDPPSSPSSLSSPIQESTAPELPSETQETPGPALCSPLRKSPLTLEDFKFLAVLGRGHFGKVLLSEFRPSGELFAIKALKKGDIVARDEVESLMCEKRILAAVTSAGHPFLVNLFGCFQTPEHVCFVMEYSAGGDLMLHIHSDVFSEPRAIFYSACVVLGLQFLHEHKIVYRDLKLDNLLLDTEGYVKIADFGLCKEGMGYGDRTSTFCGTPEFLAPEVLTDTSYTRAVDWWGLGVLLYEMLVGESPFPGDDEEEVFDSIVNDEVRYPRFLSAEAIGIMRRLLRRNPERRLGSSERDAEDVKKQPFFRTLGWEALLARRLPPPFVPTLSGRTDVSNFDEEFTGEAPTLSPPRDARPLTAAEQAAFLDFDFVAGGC
T21 sequence (Q86UE8 whole entry): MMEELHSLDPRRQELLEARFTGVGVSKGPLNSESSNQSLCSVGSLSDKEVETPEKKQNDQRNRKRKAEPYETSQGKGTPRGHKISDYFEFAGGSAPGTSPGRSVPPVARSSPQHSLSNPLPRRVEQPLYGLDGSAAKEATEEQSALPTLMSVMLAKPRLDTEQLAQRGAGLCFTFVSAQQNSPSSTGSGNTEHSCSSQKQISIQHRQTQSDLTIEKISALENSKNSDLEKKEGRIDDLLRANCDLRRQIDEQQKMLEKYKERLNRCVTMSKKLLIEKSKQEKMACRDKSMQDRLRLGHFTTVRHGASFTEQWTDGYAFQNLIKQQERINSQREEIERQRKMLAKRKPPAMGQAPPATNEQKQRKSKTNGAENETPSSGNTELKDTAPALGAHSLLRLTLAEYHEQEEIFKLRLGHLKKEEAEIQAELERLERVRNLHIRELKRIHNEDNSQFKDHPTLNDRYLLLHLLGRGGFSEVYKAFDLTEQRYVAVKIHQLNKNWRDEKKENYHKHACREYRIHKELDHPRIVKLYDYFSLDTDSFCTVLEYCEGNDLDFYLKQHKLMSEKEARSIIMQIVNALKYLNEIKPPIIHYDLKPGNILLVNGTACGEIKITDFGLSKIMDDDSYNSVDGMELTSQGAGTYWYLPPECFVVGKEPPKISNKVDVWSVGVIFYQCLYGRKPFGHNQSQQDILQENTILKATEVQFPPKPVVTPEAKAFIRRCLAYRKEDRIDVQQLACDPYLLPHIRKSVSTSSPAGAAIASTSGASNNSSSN
T23 sequence (P37173 23-567): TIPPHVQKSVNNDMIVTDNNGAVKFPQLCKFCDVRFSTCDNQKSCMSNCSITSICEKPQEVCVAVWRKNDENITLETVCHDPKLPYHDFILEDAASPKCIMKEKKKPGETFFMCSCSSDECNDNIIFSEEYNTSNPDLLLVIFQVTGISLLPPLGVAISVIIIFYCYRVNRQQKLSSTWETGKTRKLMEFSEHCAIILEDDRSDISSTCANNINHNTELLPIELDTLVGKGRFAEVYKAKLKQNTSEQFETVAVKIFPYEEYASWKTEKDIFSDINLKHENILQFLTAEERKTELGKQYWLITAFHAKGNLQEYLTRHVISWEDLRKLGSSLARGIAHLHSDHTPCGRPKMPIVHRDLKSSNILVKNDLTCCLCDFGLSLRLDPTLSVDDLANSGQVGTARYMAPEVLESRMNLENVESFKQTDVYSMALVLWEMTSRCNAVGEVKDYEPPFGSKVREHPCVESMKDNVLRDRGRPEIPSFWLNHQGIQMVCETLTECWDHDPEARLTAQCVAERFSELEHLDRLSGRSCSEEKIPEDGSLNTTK
T39 sequence (Q8N5S9 whole entry): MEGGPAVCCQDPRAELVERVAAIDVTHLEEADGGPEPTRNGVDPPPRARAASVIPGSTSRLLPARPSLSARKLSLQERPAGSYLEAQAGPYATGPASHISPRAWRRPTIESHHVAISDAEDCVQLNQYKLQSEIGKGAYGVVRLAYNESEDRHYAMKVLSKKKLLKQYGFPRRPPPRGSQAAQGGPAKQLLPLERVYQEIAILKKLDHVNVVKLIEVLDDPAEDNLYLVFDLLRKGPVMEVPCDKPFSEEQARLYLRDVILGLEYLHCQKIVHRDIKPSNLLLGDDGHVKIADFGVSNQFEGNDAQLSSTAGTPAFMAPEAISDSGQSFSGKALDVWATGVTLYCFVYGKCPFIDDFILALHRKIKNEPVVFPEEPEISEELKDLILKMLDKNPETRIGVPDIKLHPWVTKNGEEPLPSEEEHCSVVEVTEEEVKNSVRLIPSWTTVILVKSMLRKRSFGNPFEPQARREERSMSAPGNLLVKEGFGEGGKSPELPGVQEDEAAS
T25 sequence (Q16620 32-822): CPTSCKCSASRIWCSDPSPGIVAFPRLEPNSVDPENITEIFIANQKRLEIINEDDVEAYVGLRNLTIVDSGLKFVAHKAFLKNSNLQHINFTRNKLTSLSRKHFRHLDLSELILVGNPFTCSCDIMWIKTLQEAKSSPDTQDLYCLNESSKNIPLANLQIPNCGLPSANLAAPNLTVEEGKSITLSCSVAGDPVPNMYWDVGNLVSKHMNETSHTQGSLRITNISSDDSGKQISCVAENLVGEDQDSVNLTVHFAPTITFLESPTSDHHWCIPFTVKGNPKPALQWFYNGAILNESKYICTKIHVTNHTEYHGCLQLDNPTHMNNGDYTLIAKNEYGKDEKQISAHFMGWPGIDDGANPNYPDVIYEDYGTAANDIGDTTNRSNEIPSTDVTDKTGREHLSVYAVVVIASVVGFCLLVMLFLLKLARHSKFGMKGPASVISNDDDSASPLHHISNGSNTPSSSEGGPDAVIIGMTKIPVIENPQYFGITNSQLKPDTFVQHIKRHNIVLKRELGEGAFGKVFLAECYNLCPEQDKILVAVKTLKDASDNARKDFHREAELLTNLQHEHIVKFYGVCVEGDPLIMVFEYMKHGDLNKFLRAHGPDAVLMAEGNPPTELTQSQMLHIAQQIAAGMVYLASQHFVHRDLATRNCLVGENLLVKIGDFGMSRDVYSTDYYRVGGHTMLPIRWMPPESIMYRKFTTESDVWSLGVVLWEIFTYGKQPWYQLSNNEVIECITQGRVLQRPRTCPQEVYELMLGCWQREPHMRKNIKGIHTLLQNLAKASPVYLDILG
T19 sequence (Q9NQU5 whole entry): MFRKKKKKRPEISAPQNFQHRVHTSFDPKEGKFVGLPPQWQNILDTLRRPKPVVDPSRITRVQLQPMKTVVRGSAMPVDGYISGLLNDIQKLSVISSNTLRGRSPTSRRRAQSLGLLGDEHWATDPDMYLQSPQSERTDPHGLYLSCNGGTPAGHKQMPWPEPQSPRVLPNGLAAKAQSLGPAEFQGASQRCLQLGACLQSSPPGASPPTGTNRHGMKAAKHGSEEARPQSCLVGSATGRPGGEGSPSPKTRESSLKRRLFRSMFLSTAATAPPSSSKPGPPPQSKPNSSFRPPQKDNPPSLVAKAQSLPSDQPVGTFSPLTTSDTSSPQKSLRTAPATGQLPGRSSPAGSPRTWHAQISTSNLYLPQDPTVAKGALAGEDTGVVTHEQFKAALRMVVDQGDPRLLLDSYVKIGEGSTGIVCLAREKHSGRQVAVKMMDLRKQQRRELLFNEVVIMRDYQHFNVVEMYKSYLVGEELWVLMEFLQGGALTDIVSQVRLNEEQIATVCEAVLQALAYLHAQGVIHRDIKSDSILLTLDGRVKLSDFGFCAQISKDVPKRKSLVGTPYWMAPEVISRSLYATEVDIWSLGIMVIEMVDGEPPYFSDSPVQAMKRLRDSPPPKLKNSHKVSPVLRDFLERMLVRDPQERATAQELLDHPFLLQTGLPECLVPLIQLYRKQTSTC
T22 sequence (Q00526 whole entry): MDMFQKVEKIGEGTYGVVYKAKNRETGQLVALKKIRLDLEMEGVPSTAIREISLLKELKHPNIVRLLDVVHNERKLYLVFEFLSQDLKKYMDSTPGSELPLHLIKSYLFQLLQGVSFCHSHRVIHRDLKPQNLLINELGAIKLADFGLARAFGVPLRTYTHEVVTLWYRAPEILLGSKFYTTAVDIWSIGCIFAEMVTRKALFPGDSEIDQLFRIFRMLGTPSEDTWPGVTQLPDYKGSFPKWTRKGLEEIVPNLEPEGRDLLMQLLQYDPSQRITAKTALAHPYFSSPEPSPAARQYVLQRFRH
T22 sequence (O96020 whole entry partner): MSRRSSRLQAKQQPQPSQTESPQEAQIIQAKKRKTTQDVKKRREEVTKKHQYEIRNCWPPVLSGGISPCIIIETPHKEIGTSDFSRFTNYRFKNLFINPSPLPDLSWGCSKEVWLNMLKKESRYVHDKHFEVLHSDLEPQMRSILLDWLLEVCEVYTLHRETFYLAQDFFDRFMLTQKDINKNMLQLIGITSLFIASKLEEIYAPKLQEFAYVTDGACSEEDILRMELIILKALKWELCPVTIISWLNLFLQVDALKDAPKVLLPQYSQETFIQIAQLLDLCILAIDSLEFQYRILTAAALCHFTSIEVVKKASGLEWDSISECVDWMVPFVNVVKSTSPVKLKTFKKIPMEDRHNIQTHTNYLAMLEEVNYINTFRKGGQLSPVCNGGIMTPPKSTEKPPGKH

Question: Which results are given for `Cc1ccc(Nc2ncc3c(n2)N(C)C(=O)N(c2cc(C(=O)N[C@H](C(=O)N4CCC[C@H]4C(=O)NC(C)(C)C(=O)N[C@@H](CC(C)C)C(=O)N(C)C)C(C)C)ccc2C)C3)cn1` [7a, (S)-N-(1-(((S)-1-(dimethylamino)-4-methyl-1-oxopentan-2-yl)amino)-2-methyl-1-oxopropan-2-yl)-1-((4-methyl-3-(1-methyl-7-((6-methylpyridin-3-yl)amino)-2-oxo-1,4-dihydropyrimido[4,5-d]pyrimidin-3(2H)-yl)benzoyl)-L-valyl)pyrrolidine-2-carboxamide] (X1-VP[Aib]L-NMe2)?
Answer: inhibition at 1 µM (DCAMKL2): 0%; inhibition at 1 µM (CDK4/cyclin D3): 3%; inhibition at 1 µM (RIPK3): 0%; inhibition at 1 µM (TESK1): 0%; inhibition at 1 µM (CDK1/cyclin B): 7%; inhibition at 1 µM (GRK3): 0%; inhibition at 1 µM (PDGFRa): 31%; inhibition at 1 µM (EPHA2): 21%; inhibition at 1 µM (ALK4/ACVR1B): 0%; inhibition at 1 µM (PKCG): 9%; inhibition at 1 µM (TIE2/TEK): 0%; inhibition at 1 µM (PKN1/PRK1): 1%; inhibition at 1 µM (ROCK2): 10%; inhibition at 1 µM (PKCepsilon): 1%; inhibition at 1 µM (GCK/MAP4K2): 13%; inhibition at 1 µM (CAMK1a): 1%; inhibition at 1 µM (CAMK4): 0%; inhibition at 1 µM (NLK): 3%; inhibition at 1 µM (PAK6): 0%; inhibition at 1 µM (PKMYT1): 8%; inhibition at 1 µM (TLK2): 0%; inhibition at 1 µM (CDK3/cyclin E2): 0%; inhibition at 1 µM (TGFBR2): 0%; inhibition at 1 µM (PAK3): 0%; inhibition at 1 µM (TRKB): 5%; inhibition at 1 µM (ERN1/IRE1): 5%; inhibition at 1 µM (CK2a2): 3%; inhibition at 1 µM (MARK2/PAR-1Ba): 0%; inhibition at 1 µM (FLT3): 18%; inhibition at 1 µM (CLK1): 5%; inhibition at 1 µM (LIMK1): 51%; inhibition at 1 µM (TTBK2): 7%; inhibition at 1 µM (YES/YES1): 62%; inhibition at 1 µM (ALK3/BMPR1A): 3%; inhibition at 1 µM (GRK5): 1%; inhibition at 1 µM (WNK3): 19%; inhibition at 1 µM (RIPK4): 15%; inhibition at 1 µM (PAK2): 0%; inhibition at 1 µM (CAMKK1): 0%; inhibition at 1 µM (GRK4): 1%; inhibition at 1 µM (ERK2/MAPK1): 0%; inhibition at 1 µM (FYN): 21%; inhibition at 1 µM (JNK3): 1%
